The text below walks through data of US12116564B2, “Cells expressing recombinant growth factor receptors” (INSTIL BIO (UK) LIMITED, priority 2015, dated 2024).

In data set [1] the test system is WT TpoR transduced primary human T-cells. The format is cell-based. The following applies: for response in relative increase of cell number as concentration increases: varying concentrations, three and five days. On the procedure: Transduced primary human T-cells were incubated with the indicated concentrations of each drug and cells counted after three and five days
(§1) Following expansion cells were washed excessively to remove any exogenous IL2 and plated into 96-well U-bottom plates. Cells were supplemented with IL2 (Proleukin), recombinant human Tpo (Miltenyi Biotec) or Eltrombopag (Stratech Scientific, Suffolk, UK). At various time points thereafter cells were either stained with a 1:400 dilution of eFlor-450 fixable viability dye (eBioscience, UK) and counted directly from the wells using a MACSQuant Cytometer, or were stained with viability dye plus phycoerythrin conjugated anti-CD110 antibodies (Miltenyi Biotec, UK) and analysed using a MACSQuant cytomter. Cell viability and/or transduction level was then analysed using MACSQuantify software (Miltenyi Biotec, UK).
After three and five days the cells were stained with EFlor-450 Live/dead fixable viability dye and the cells in each well counted by flow cytometry.

The test system of data set [2] is primary human T-cells harbouring the WT TpoR. As to the kind of experiment: Enrichment of TpoR+ cells (anti-CD110 flow cytometry), WT TpoR T-cells diluted to 20% transduction. It is filed as cell-based. The note with it: for TpoR positive cells after enrichment: start 20% transduced, up to nine days. On the procedure: as §1, with “FIG. 6—Enrichment kinetics of modular T-cell growth signal receptor engineered T-cells to varying concentrations of IL-2, Eltrombopag (Elt) or thrombopoietin (Tpo). Transduced primary human T-cells were diluted with non-transduced cells to a 20% transduction level. Cells were incubated with the indicated concentrations of each drug and the enrichment of each population established at the indicated time points by staining cells with anti-CD110-PE antibodies. Following expansion” for “Following expansion”, “Biotec, UK). Additional cells were diluted with non-transduced cells to achieve a population with 20% transduction efficiency. […] After three, six and nine days the cells were stained with anti-CD110 (TpoR) antibodies and analysed by flow cytometry.” for “Biotec, UK).”

For data set [3], the system named is primary human T-cells harbouring the mt TpoR. As to the kind of experiment: Enrichment of TpoR+ cells (anti-CD110 flow cytometry), mt (truncated) TpoR T-cells diluted to 20% transduction. The format is cell-based. The note with it: for TpoR positive cells after enrichment: start 20% transduced, up to nine days. Here is the method: as §1, with “FIG. 6—Enrichment kinetics of modular T-cell growth signal receptor engineered T-cells to varying concentrations of IL-2, Eltrombopag (Elt) or thrombopoietin (Tpo). Transduced primary human T-cells were diluted with non-transduced cells to a 20% transduction level. Cells were incubated with the indicated concentrations of each drug and the enrichment of each population established at the indicated time points by staining cells with anti-CD110-PE antibodies. Following expansion” for “Following expansion”, “Biotec, UK). Additional cells were diluted with non-transduced cells to achieve a population with 20% transduction efficiency. […] After three, six and nine days the cells were stained with anti-CD110 (TpoR) antibodies and analysed by flow cytometry.” for “Biotec, UK).”

Data set [4] has as its system melanoma TIL transduced with WT TpoR. As to the kind of experiment: Enrichment of TpoR+ cells in WT TpoR transduced melanoma tumour infiltrating lymphocytes. The format is cell-based, human. The note with it: for TpoR+ cells after enrichment: from 65% TpoR+. Here is the method: FIG. 12—Analysis of WT TpoR activity in Melanoma Tumour Infiltrating Lymphocytes. Tumour infiltrating lymphocytes (TIL) established from a cutaneous melanoma lesion were lentivirally transduced with the WT TpoR rGFR. The TIL were incubated in the presence of 200 IU/ml IL2 or the indicated concentrations of Tpo or Eltrombopag. At days 2 and 5 cells were removed, stained with PE conjugated anti-CD110 antibodies and analysed using a MACSQuant analyser.
Next we aimed to determine whether the WT TpoR was functionally active in Tumour Infiltrating Lymphocytes (TIL). It was possible that the high doses of IL2 used to generate TIL cultures could make them more dependent on IL2 for subsequent growth. To this end we added lentiviral supernatants to melanoma TIL cultures. Cells were transduced to 65% (FIG. 12). The TILs were cultured in the presence of 200 IU/ml IL-2, or Eltrombopag or Tpo. Cells were analysed for TpoR expression at days 2 and 5. […] In contrast there was no enrichment of TpoR+ cells in the presence of IL2 supporting the notion that this is driven by signals through the TpoR.

The conditions of data set [5]: 73 healthy volunteers, higher doses; cited from earlier work.
The subject of data set [6] is Ba/F3 cells transduced with WT TpoR. Put plainly: Enrichment of transduced Ba/F3 cells, WT TpoR. It is filed as cell-based, murine. The following applies: 0.5 μM Eltrombopag or 1.0 μM Tpo; days 3, 5 and 7. On the procedure: (§2) FIG. 10—Analysis of rGFR variants in Ba/F3 cells. The IL3 dependent cell line Ba/F3 was transduced with the indicated rGFR variants and incubated in the presence of 1 μM Tpo, 0.5 μM Eltrombopag or 0.5 ng/ml IL3. Cells were taken at days 3, 5 and 7 stained with PE conjugated anti-CD110 antibodies and analysed using a MACSQuant analyser.
(§3) To determine whether the new variants generated were functionally active we transduced the IL3 dependent cell line Ba/F3 and incubated the cells with either IL-3, 0.5 μM Eltrombopag or 1.0 μM Tpo and measured the proportion of cells expressing the indicated TpoR at days 3, 5 and 7.

Data set [7] deals with Ba/F3 cells transduced with F104S TpoR variant. Put plainly: Enrichment of transduced Ba/F3 cells, F104S TpoR. It is filed as cell-based, murine. The note with it: 0.5 μM Eltrombopag or 1.0 μM Tpo; days 3, 5 and 7. Here is the method:
as §2, §3

The subject of data set [8] is Ba/F3 cells transduced with TpoR-HGHR variant. As to the kind of experiment: Enrichment of transduced Ba/F3 cells, TpoR-HGHR. The format is cell-based, murine. The note with it: 0.5 μM Eltrombopag or 1.0 μM Tpo; days 3, 5 and 7. On the procedure:
as §2, §3

In data set [9] the test system is Ba/F3 cells transduced with TpoR-PrIR variant. As to the kind of experiment: Enrichment of transduced Ba/F3 cells, TpoR-PrIR. It is filed as cell-based, murine. The following applies: 0.5 μM Eltrombopag or 1.0 μM Tpo; days 3, 5 and 7; compared with the other variants. On the procedure:
as §2, §3

The next data set has as its target T1, TpoR F104S (Homo sapiens, UniProt P40238, F104S).
T1 sequence (P40238 26-635 F104S): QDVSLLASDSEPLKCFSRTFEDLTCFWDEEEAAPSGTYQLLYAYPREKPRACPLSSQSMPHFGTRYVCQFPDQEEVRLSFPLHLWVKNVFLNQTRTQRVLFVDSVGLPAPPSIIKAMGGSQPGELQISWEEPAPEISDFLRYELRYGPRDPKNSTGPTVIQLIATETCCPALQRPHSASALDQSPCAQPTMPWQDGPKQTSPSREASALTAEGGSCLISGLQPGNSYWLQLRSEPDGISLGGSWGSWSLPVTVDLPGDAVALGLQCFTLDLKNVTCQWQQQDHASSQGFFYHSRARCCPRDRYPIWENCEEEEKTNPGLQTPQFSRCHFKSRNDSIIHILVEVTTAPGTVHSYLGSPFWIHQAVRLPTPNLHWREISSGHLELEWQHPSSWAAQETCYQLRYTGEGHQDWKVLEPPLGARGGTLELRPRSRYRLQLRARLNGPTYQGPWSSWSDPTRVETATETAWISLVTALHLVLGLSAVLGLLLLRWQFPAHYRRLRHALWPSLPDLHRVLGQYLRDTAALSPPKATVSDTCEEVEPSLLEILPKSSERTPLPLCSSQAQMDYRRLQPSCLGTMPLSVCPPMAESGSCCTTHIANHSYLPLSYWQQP
The note with it: Fox et al 2010; cited from earlier work.

In the case of `CC1=NN(c2ccc(C)c(C)c2)C(=O)/C1=N\Nc1cccc(-c2cccc(C(=O)O)c2)c1O` [Eltrombopag], the “concentration at which responses (relative increase of cell number) are maximal” value in data set [1] (94% transduced, 5×10^4 cells/well, counted after three and five days) is on record as “around 0.1 μM”. Also, the “toxicity to the T-cells” value in data set [1] (concentrations above around 0.1 μM) is “becoming toxic”. For the same molecule, the entries for the “TpoR positive cells after enrichment” value in data set [2] (0.5 μM Eltrombopag) and in data set [3] (0.5 μM Eltrombopag) were 83.5% and 66.6%, respectively. Moreover, the “TpoR+ cells after enrichment” value in data set [4] (high (1.0 μM) Eltrombopag) turned out to be 90%; in data set [4] (low (0.1 μM) Eltrombopag), 89%. The tolerability result in data set [5] is given as “without tolerability problems”.
As to “IL-2: IL2 (Proleukin), cytokine normally required for optimal T-cell growth”, the “response in relative increase of cell number as concentration increases” value in data set [1] was “dose dependent responses”. Also, the “enrichment of TpoR positive cells over time” value in data set [2] (100 IU/ml IL-2 alone) and in [3] (100 IU/ml IL-2 alone) was “did not become enriched over time” in each case. The “enrichment of TpoR+ cells” value in data set [4] (200 IU/ml IL-2) was “no enrichment”.

B1: Tpo: recombinant human Tpo (Miltenyi Biotec), native ligand of the thrombopoietin receptor (protein)
chain: SPAPPACDLRVLSKLLRDSHVLHSRLSQCPEVHPLPTPVLLPAVDFSLGEWKTQMEETKAQDILGAVTLLLEGVMAARGQLGPTCLSSLLGQLSGQVRLLLGALQSLLGTQLPPQGRTTAHKDPNAIFLSFQHLLRGKVRFLMLVGGSTLCVRRAPPTTAVPSRTSLVLTLNEL
Take B1: in [1] (possibly optimal concentrations not used), the “maximal response compared with Eltrombopag or IL-2” value is reported as “did not see maximal responses to Tpo comparable to those seen with Eltrombopag or IL-2”. Moreover, in [1], the “response in relative increase of cell number as concentration increases” value is “dose dependent responses”. In addition, the “TpoR positive cells after enrichment” value in data set [2] (10.0 μM Tpo) is recorded as 87.5%; in data set [3] (10.0 μM Tpo) it was 77.9%. In addition, the figures for the “enrichment of transduced cells” value in [6] and in data set [7] were “able to support the enrichment of transduced cells” and “much reduced activity”, respectively. Moreover, the “functional activity (enrichment of transduced cells)” value in data set [8] is listed as “functional activity”; in data set [9], “less robust responses”. Further, the “enrichment of TpoR+ T-cells” value in [4] (high (1 μM) Tpo) is “able to induce enrichment”. In addition, the “effect of the F104S extracellular point mutation on responsiveness to the ligand” value with TpoR F104S is reported as “prevent responsiveness”.
